Assays:
[1] = system: trabecular meshwork (TM) scarring; assay: Trabecular meshwork scarring: laminin and fibronectin immunohistochemistry in the angle; type: in vivo, Sprague Dawley rats; conditions: rat TGF-β glaucoma model, day 28, vs saline
Excerpt: Measured End-Points • IOP twice weekly throughout study from day 0 to day 28; • Immunohistochemistry for counting RGC that are immunoreactive for brain-specific homeobox/POU domain protein 3A (Brn3a) at day 28 (RGC survival); • Immunohistochemistry for laminin and fibronectin to evaluate scarring in the trabecular meshwork at day 28 in Groups 1 and 2; • Anterior segment and OCT imaging at day 28 to examine the angle and the thickness of the retinal nerve fiber layer comprising RGC axons; and • Body weight at day 28. […]
After immunofluorescence staining, sections were viewed on a Zeiss Axioplan 2 epi-fluorescent microscope (Carl Zeiss Ltd) and images captured using the same exposure times for each antibody using a Zeiss AxioCam HRc. IHC was quantified according to the methods previously described. Briefly, the region of interest used for quantitation of TM fibrosis was defined by a quadrant of the same prescribed size for all eyes/treatments within the TM, and ECM deposition was quantified within this defined quadrant of the TM and the % immunofluorescent pixels above a standardized background threshold calculated using ImageJ software (National Institutes of Health, USA). […] Images were assigned randomized numbers to ensure blinding of treatment groups during quantification by the assessor.

[2] = system: retinal nerve fiber layer (RNFL); assay: OCT analysis of retinal nerve fiber layer in TGF-β-induced glaucoma model; type: in vivo, Sprague Dawley rats; conditions: rat TGF-β glaucoma model; day 28
Procedure: Glaucoma was induced in adult male Sprague Dawley rats by repeat twice weekly intracameral (IC) injections of transforming growth factor-β (TGF-β) to increase intraocular pressure (IOP). Sustained increases in IOP (after two weeks) leads to death of retinal ganglion cells (30-40%). Dextran sulfate (Tikomed AB, Sweden, WO 2016/076780) was administered at 15 mg/kg by daily subcutaneous injection from […] to assess RGC protection compared to controls.
Measured End-Points • IOP twice weekly throughout study from day 0 to day 28; • Immunohistochemistry for counting RGC that are immunoreactive for brain-specific homeobox/POU domain protein 3A (Brn3a) at day 28 (RGC survival); • Immunohistochemistry for laminin and fibronectin to evaluate scarring in the trabecular meshwork at day 28 in Groups 1 and 2; • Anterior segment and OCT imaging at day 28 to examine the angle and the thickness of the retinal nerve fiber layer comprising RGC axons; and • Body weight at day 28.
Optical coherence tomography allows in vivo measuring of retinal thickness with RNFL being a surrogate measure of RGC density. OCT retinal nerve fiber layer analysis was performed at day 28 on all rats while under inhalation anesthesia using a Spectralis HRA3 confocal scanning laser ophthalmoscope (Heidelberg Engineering). […] In-built software was used to segment the images and quantify the RNFL thickness.

dextran sulfate was tested, and the “levels of immunoreactive laminin in the angle” value ([1]; P<0.001) was “significantly reduced”, the “levels of immunoreactive fibronectin in the angle” value ([1]; P<0.01) was “significantly reduced” and the “RNFL (OCT) compared to saline treatment” value [2] was “preserved”.
